Test [1] addresses human GLP-1R (Homo sapiens (Human), UniProt P43220, L260F). Description: CHO GLP-1R Clone C6—Assay 2: HTRF cAMP cell-based functional agonist assay (low GLP-1R density). To be noted: for EC50: CHO GLP-1R Clone C6, cAMP HTRF, geometric mean; for Emax: CHO GLP-1R Clone C6, relative to saturating concentration of full agonist GLP-1 (1 μM), arithmetic mean, read-out: Assay 2 Emax (%).

Test [2] deals with human GLP-1R (Homo sapiens, UniProt P43220, G168S). Description: CHO GLP-1R Clone H6—Assay 1: HTRF cAMP cell-based functional agonist assay (high GLP-1R density). To be noted: for EC50: read-out: Assay 1 EC50, CHO GLP-1R Clone H6, cAMP HTRF, geometric mean; for Emax: read-out: Assay 1 Emax (%), CHO GLP-1R Clone H6, relative to saturating concentration of full agonist GLP-1 (1 μM), arithmetic mean.
human GLP-1R (Homo sapiens, UniProt P43220, G168S), sequence (P43220 24-463 G168S limits assumed): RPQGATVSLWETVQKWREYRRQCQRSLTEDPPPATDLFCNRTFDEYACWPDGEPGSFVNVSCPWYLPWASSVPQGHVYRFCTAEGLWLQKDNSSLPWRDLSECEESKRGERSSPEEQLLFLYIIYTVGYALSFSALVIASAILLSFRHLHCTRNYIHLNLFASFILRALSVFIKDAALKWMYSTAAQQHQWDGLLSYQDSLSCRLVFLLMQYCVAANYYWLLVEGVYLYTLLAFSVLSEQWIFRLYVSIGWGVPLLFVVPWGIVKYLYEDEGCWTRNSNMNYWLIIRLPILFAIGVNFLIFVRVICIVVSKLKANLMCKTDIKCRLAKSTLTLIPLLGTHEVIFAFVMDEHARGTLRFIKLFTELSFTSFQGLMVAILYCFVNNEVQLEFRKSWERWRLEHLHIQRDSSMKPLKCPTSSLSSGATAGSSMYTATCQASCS

human GLP-1R (Homo sapiens (Human), UniProt P43220, L260F), sequence (P43220 24-463 L260F): as the sequence (P43220 24-463 G168S limits assumed) above, with S145G, L237F counted along it

Regarding `O=C(O)c1ccc2nc(CN3CCN(c4cccc(OCc5ccc(Cl)cc5F)n4)CC3)n(Cc3cnco3)c2c1` [Example 10A-45, 2-[(4-{6-[(4-chloro-2-fluorobenzyl)oxy]pyridin-2-yl}piperazin-1-yl)methyl]-1-(1,3-oxazol-5-ylmethyl)-1H-benzimidazole-6-carboxylic acid], on human GLP-1R [1], the midpoint of the response, the EC50, lay at 19 nM and the maximal response (Emax) stood at 75%. Moreover, at human GLP-1R [2], the EC50 stood at 1 nM and the Emax came out at 76%.
`C[C@H]1CN(c2cccc(OCc3ccc(C#N)cc3F)n2)CCN1Cc1nc2ccc(C(=O)O)cc2n1C[C@@H]1CCO1` [Example 10A-47, 2-{[(2S)-4-{6-[(4-cyano-2-fluorobenzyl)oxy]pyridin-2-yl}-2-methylpiperazin-1-yl]methyl}-1-[(2S)-oxetan-2-ylmethyl]-1H-benzimidazole-6-carboxylic acid]: on human GLP-1R [1], it took 4.4 nM to reach a half-maximal effect (EC50) and the Emax turned out to be 95%. For the same molecule, on human GLP-1R [2], the EC50 was determined as 0.3 nM and the Emax stood at 80%.
Consider `O=C(O)c1ccc2nc(CN3CCN(c4cccc(OCc5ccc(Cl)cc5F)n4)CC3)n(C[C@H]3CCO3)c2c1` [Example 10A-48], for which, at human GLP-1R [1], the EC50 came to 140 nM and the Emax stood at 76%. Also, at human GLP-1R [2], the EC50 is 8.6 nM and the Emax worked out at 64%.
Regarding `N#Cc1ccc(COc2nc(C3CCN(Cc4nc5ccc(C(=O)O)cc5n4C[C@@H]4CCO4)CC3)ccc2F)c(F)c1` [Example 10A-54, 2-[(4-{6-[(4-cyano-2-fluorobenzyl)oxy]-5-fluoropyridin-2-yl}piperidin-1-yl)methyl]-1-[(2S)-oxetan-2-ylmethyl]-1H-benzimidazole-6-carboxylic acid], at human GLP-1R [1], the response was half-maximal at 11 nM (EC50) and the Emax was found to be 100%. Also, at human GLP-1R [2], the EC50 was 0.71 nM and the Emax was found to be 81%.
The matching figures for `N#Cc1ccc(COc2nc(C3CCN(Cc4nc5ccc(C(=O)O)cc5n4C[C@@H]4CCO4)CC3)ccc2F)cc1` [Example 10A-55, 2-[(4-{6-[(4-cyanobenzyl)oxy]-5-fluoropyridin-2-yl}piperidin-1-yl)methyl]-1-[(2S)-oxetan-2-ylmethyl]-1H-benzimidazole-6-carboxylic acid]: 24 nM, 98%, 1.2 nM and 84%.
In the same order, the values of `C[C@H]1CN(c2ccc(F)c(OCc3ccc(F)cc3F)n2)CCN1Cc1nc2ccc(C(=O)O)cc2n1C[C@@H]1CCO1` [Example 10A-56, 2-{[(2S)-4-{6-[(2,4-difluorobenzyl)oxy]-5-fluoropyridin-2-yl}-2-methylpiperazin-1-yl]methyl}-1-[(2S)-oxetan-2-ylmethyl]-1H-benzimidazole-6-carboxylic acid] are 16 nM, 86%, 0.5 nM and 78%.
For the molecule `C[C@H]1CN(c2ccc(F)c(OCc3ccc(F)cc3F)n2)CCN1Cc1nc2ccc(C(=O)O)cc2n1C[C@H]1CCO1` [Example 10A-57], the EC50 came to 160 nM on human GLP-1R [1] and 9.4 nM on human GLP-1R [2]. Further, the Emax on human GLP-1R [1] stood at 71%; on human GLP-1R [2], 69%.
In the same order, the values of `C[C@H]1CN(c2cccc(OCc3ccc(F)cc3F)n2)CCN1Cc1nc2ccc(C(=O)O)cc2n1C[C@@H]1CCO1` [Example 10A-58, 2-{[(2S)-4-{6-[(2,4-difluorobenzyl)oxy]pyridin-2-yl}-2-methylpiperazin-1-yl]methyl}-1-[(2S)-oxetan-2-ylmethyl]-1H-benzimidazole-6-carboxylic acid] are 8.5 nM, 0.52 nM, 78% and 70%.
Turning to `C[C@H]1CN(c2cccc(OCc3ccc(C#N)cc3F)n2)CCN1Cc1nc2ccc(C(=O)O)cc2n1C[C@H]1CCOC1` [Example 10A-59], on human GLP-1R [1], the EC50 worked out at 84 nM and the Emax is 83%. At human GLP-1R [2], the EC50 was 4.7 nM and the Emax was 71%.
`O=C(O)c1ccc2nc(CN3CCC(c4cccc(OCc5ccc(Cl)cc5F)n4)CC3)n([C@@H]3CCOC3)c2c1` [Example 10A-60]: on human GLP-1R [1], the EC50 is 460 nM and the Emax was determined as 66%. Also, at human GLP-1R [2], the EC50 is 31 nM and the Emax stood at 81%.
In the same order, the values of `N#Cc1ccc(COc2cccc(N3CCN(Cc4nc5ccc(C(=O)O)cc5n4Cc4cnco4)CC3)n2)c(F)c1` [Example 10A-61, 2-[(4-{6-[(4-cyano-2-fluorobenzyl)oxy]pyridin-2-yl}piperazin-1-yl)methyl]-1-(1,3-oxazol-5-ylmethyl)-1H-benzimidazole-6-carboxylic acid] are 35 nM, 89%, 1.5 nM and 74%.
In the case of `CCn1nncc1Cn1c(CN2CCN(c3cccc(OCc4ccc(C#N)cc4F)n3)CC2)nc2ccc(C(=O)O)cc21` [Example 10A-62, 2-[(4-{6-[(4-cyano-2-fluorobenzyl)oxy]pyridin-2-yl}piperazin-1-yl)methyl]-1-[(1-ethyl-1H-1,2,3-triazol-5-yl)methyl]-1H-benzimidazole-6-carboxylic acid], the EC50 at human GLP-1R [1] amounted to 28 nM; at human GLP-1R [2] it was 2.9 nM. Further, the values for the Emax on human GLP-1R [1] and on human GLP-1R [2] were 97% and 96%, respectively.
On to `CCn1cncc1Cn1c(CN2CCN(c3cccc(OCc4ccc(C#N)cc4F)n3)C[C@@H]2C)nc2ccc(C(=O)O)cc21` [Example 10A-63], for which, on human GLP-1R [1], the half-maximal effective concentration (EC50) was determined as 11 nM and the Emax worked out at 110%. Further, on human GLP-1R [2], the EC50 came out at 0.58 nM and the Emax stood at 86%.
On to `O=C(O)c1ccc2nc(CN3CCC(c4cccc(OCc5ccc(Cl)cc5F)n4)CC3)n(Cc3ccno3)c2c1` [Example 10A-64, 2-[(4-{6-[(4-chloro-2-fluorobenzyl)oxy]pyridin-2-yl}piperidin-1-yl)methyl]-1-(1,2-oxazol-5-ylmethyl)-1H-benzimidazole-6-carboxylic acid], for which, at human GLP-1R [1], the EC50 was 32 nM and the Emax is 79%. Besides, at human GLP-1R [2], the EC50 turned out to be 2 nM and the Emax worked out at 82%.
As for `N#Cc1ccc(COc2cccc(C3CCN(Cc4nc5ccc(C(=O)O)cc5n4Cc4ccon4)CC3)n2)c(F)c1` [Example 10A-65, 2-[(4-{6-[(4-cyano-2-fluorobenzyl)oxy]pyridin-2-yl}piperidin-1-yl)methyl]-1-(1,2-oxazol-3-ylmethyl)-1H-benzimidazole-6-carboxylic acid], at human GLP-1R [1], a half-maximal effect (EC50) was put at 35 nM and the Emax was determined as 78%. Further, on human GLP-1R [2], the EC50 stood at 1.6 nM and the Emax turned out to be 84%.
Take `CCn1cncc1Cn1c(CN2CCC(c3cccc(OCc4ccc(C#N)cc4F)n3)CC2)nc2ccc(C(=O)O)cc21` [Example 10A-66, 2-[(4-{6-[(4-cyano-2-fluorobenzyl)oxy]pyridin-2-yl}piperidin-1-yl)methyl]-1-[(1-ethyl-1H-imidazol-5-yl)methyl]-1H-benzimidazole-6-carboxylic acid]: the values for the EC50 at human GLP-1R [1] and on human GLP-1R [2] were 3.4 nM and 0.39 nM, respectively. Further, the results for the Emax on human GLP-1R [1] and on human GLP-1R [2] were 100% and 84%, respectively.
Turning to `CCn1cncc1Cn1c(CN2CCN(c3cccc(OCc4ccc(Cl)cc4F)n3)C[C@@H]2C)nc2ccc(C(=O)O)cc21` [Example 10A-67, 2-{[(2S)-4-{6-[(4-chloro-2-fluorobenzyl)oxy]pyridin-2-yl}-2-methylpiperazin-1-yl]methyl}-1-[(1-ethyl-1H-imidazol-5-yl)methyl]-1H-benzimidazole-6-carboxylic acid], on human GLP-1R [1], the EC50 was determined as 6.8 nM and the Emax turned out to be 93%. Besides, at human GLP-1R [2], the half-maximal effective concentration (EC50) turned out to be 0.59 nM and the Emax stood at 83%.
The matching figures for `CCn1nncc1Cn1c(CN2CCC(c3cccc(OCc4ccc(C#N)cc4F)n3)CC2)nc2ccc(C(=O)O)cc21` [Example 10A-69, 2-[(4-{6-[(4-cyano-2-fluorobenzyl)oxy]pyridin-2-yl}piperidin-1-yl)methyl]-1-[(1-ethyl-1H-1,2,3-triazol-5-yl)methyl]-1H-benzimidazole-6-carboxylic acid]: 20 nM, 87%, 2 nM and 84%.
As to `O=C(O)c1ccc2nc(CN3CCC(c4cccc(OCc5ccc(Cl)cc5F)n4)CC3)n([C@H]3CCOC3)c2c1` [Example 10A-71], on human GLP-1R [1], the EC50 came to 5800 nM and the Emax was found to be 85%. Also, on human GLP-1R [2], the EC50 worked out at 190 nM and the Emax was found to be 62%.
On to `O=C(O)c1ccc2nc(CN3CCC(c4cccc(OCc5ccc(Cl)cc5F)n4)CC3)n(C[C@@H]3CCCO3)c2c1` [Example 10A-73, 2-[(4-{6-[(4-chloro-2-fluorobenzyl)oxy]pyridin-2-yl}piperidin-1-yl)methyl]-1-[(2S)-tetrahydrofuran-2-ylmethyl]-1H-benzimidazole-6-carboxylic acid], for which the EC50 at human GLP-1R [1] was 88 nM; at human GLP-1R [2] it was 8.6 nM. Moreover, the Emax stood at 82% at human GLP-1R [1] and 78% on human GLP-1R [2].
In the case of `O=C(O)c1ccc2nc(CN3CCN(c4cccc(OCc5ccc(Cl)cc5F)n4)CC3)n(C[C@@H]3CCO3)c2n1` [Example 10A-74, 2-[(4-{6-[(4-chloro-2-fluorobenzyl)oxy]pyridin-2-yl}piperazin-1-yl)methyl]-3-[(2S)-oxetan-2-ylmethyl]-3H-imidazo[4,5-b]pyridine-5-carboxylic acid], at human GLP-1R [1], the EC50 is 9.7 nM and the Emax worked out at 100%. In addition, on human GLP-1R [2], the EC50 is 0.9 nM and the Emax amounted to 94%.
In the same order, the values of `CCn1cncc1Cn1c(CN2CCC(c3cccc(OCc4ccc(C#N)cc4F)n3)CC2)nc2ccc(C(=O)O)nc21` [Example 10A-75] are 13 nM, 91%, 0.95 nM and 95%.

These data come from patent US10208019B2, “GLP-1 receptor agonists and uses thereof” (Pfizer Inc., priority 2016, dated 2019).
